According to patent US9364450B2, “Clenbuterol for use in treatment of autism” (STOW[…]. CELESTYNA, priority 2011, dated 2016):

Assay: Administration of clenbuterol to patients with autistic symptoms (case examples)
Type: in vivo, autistic children
Experimental: A patient with autistic symptoms in the form of disorders of social integration, verbal and non-verbal communication, play disorders and concomitant anxiety, especially when changing environment, was administered clenbuterol at a dose of ¼ tablet containing 20 μg of clenbuterol once daily for a period of 3 months.
A patient with pediatric autism and cerebral palsy was administered the medication at a dose of ¼ of 20 μg tablet twice daily for a period of 12 months.
A patient with early pediatric autism, psychomotor hyperactivity syndrome and speech development delay was administered clenbuterol at a dose of ¼ of 20 μg tablet once daily for a period of 12 months.
It has been assumed that clenbuterol, modulating the brain neurotransmitter systems, affects also the endocrine and immunological system. As a result, alleviation of communication disorders and improved contact with surroundings is observed in autistic children.

CC(C)(C)NCC(O)c1cc(Cl)c(N)c(Cl)c1 (racemic) [clenbuterol, (RS)-1-(4-amino-3,5-dichlorophenyl)-2-(tert-butylamino)ethanol]
Overall effects observed in autistic children (administration at very small doses to autistic children): Improved contact with surroundings, better concentration, improved ability to plan a specific task, improved understanding, calming, and reduced psychomotor anxiety were observed
Effect on functional disorders related to ASD (administration of effective amounts of clenbuterol or its pharmaceutically effective salt): seems to practically alleviate functional disorders related to ASD
Adverse effects (long-term administration of clenbuterol or its pharmaceutically acceptable salt): no adverse effects associated with medications previously used in treatment of autism were observed
Change in autistic symptoms after therapy (interest in environment, contact with surroundings, anxiety) (patient with autistic symptoms, 1/4 tablet containing 20 μg once daily for 3 months): increased interest in the environment was observed; the child's contact with surroundings improved and its anxiety symptoms decreased
Change in autistic symptoms after treatment (speech expression, psychomotor anxiety, grimacing) (patient with early pediatric autism, psychomotor hyperactivity syndrome and speech development delay, 1/4 of 20 μg tablet once daily for 12 months): Improvement in speech expression was achieved as well as reduction of psychomotor anxiety and grimacing
Change in autistic symptoms after treatment (understanding, concentration, attention, speech) (patient with pediatric autism and cerebral palsy, 1/4 of 20 μg tablet twice daily for 12 months): improvement with respect to understanding, concentration, attention, and speech
